Here are results for 11 molecules from patent US5753647A, “Acylamino-substituted hetrazepines” (Boehringer Ingelheim KG, priority 1991, dated 1998).

Experiment [1] concerns the target T1, PAF receptor on washed human platelets (Homo sapiens, UniProt P25105).
T1 construct: endogenous in cells; host or cells: human blood platelets (thrombocytes) from healthy donors, purified by Sepharose CL-2B chromatography
The experiment can be described thus: [^3 H]PAF-receptor binding to vital human blood platelets. Particulars: vital human thrombocytes. Here is the method:
[^3 H]PAF-Receptor-Bonding to Vital Human Blood Platelets
The competitive interaction of test substances (here PAF-antagonists) with the known interaction of the radioligand [^3 H]PAF to the same receptor is determined. The binding studies are carried out on vital human thrombocytes. Blood samples from healthy donors were diluted with ACD-buffer and centrifuged (15 min., 160×g). The platelet-rich plasma is purified by chromatography on Sepharose CL-2B [using HEPES-buffer, pH 7.4 at 20° C. for eluting].
Defined quantities [e.g. 800 μl] of the platelet suspension were incubated for 90 minutes at ambient temperature, i.e. mixed with: a) a 30 picomolar [^3 H]PAF-solution diluted with buffer. b) a 30 picomolar [3 H] PAF-solution which simultaneously contains a μ-molar (unlabelled) PAF-solution, c) with the 30 picomolar [^3 H]PAF-solution and the solutions of the test substances (different concentrations) d) used to determine total binding, e) used to determine non-specific binding.
The reaction was stopped by vacuum filtration. The filters with the blood platelets were mixed with scintillation liquid and the residual radioactivity measured in a counter.
The specific binding is obtained from the total binding minus the nonspecific binding. Either the IC50 values (i.e. the concentration of test substance which displaces 50% of the radioligand--in this case [^3 H] PAF--from the receptor) is determined and this is specified, or the Ki -values are calculated from this. This may be done by computer-aided calculation using an iteration process of the binding curves. IC50 and Ki-values are a measurement of the receptor affinity of the test substance. Lower values indicate a higher affinity.

Experiment [2] has as its target T1, PAF receptor on washed human platelets. To be noted: as known from the prior art (EP 367 110); read-out: binding value Ki of prior art compound; cited from earlier work.

Read-outs that look alike come from different tables or passages of the source.

T1 sequence (P25105 whole entry): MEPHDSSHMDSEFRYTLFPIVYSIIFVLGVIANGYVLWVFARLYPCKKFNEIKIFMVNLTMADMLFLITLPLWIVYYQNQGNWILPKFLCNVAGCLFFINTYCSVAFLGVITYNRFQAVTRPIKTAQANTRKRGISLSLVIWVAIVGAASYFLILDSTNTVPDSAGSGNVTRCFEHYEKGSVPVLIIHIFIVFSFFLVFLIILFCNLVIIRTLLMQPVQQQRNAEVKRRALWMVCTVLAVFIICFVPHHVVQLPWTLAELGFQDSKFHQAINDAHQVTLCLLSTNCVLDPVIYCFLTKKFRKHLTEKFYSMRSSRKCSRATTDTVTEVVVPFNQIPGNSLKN

For `COc1ccc(C(=O)N2CCc3c(sc4c3C(c3ccccc3Cl)=NC(C)c3nnc(C)n3-4)C2)cc1` (centres unmarked) [Example 29], the affinity in experiment [1] corresponds to a Ki of 7.8 nM. Same read-out and setting: under `Cc1nnc2n1-c1sc3c(c1C(c1ccccc1Cl)=NC2C)CCN(C(=O)c1ccc(Cl)cc1)C3` (centres unmarked) [Example 1a] stands 1.9 nM.

For the molecule `Cc1nnc2n1-c1sc3c(c1C(c1ccccc1Cl)=NC2)CCN(C(=O)C1CC1)C3` [3-cyclopropylcarbonyl-6-(2-chlorophenyl)-11-methyl-2,3,4,5-tetrahydro-4H-pyrido-[4,3:4',5']thieno[3,2-f][1,2,4]triazolo[4,3-a]-1,4-diazepine], in experiment [2], the inhibition constant Ki was 13 nM. `Cc1nnc2n1-c1sc3c(c1C(c1ccccc1Cl)=NC2C)CCN(C(=O)c1ccc(Cl)cc1)C3` (centres unmarked) [Example 1, 3-(4-Chlorobenzoyl)-6-(2-chlorophenyl)-8,11-dimethyl-2,3,4,5-tetrahydro-4H-pyrido[4,3 :4',5']thieno-[3,2-f][1,2,4]triazolo[4,3-a]-1,4-diazepine] had an inhibition constant (Ki) in experiment [1] of 2.9 nM. Still for that read-out and setting: under `Cc1nnc2n1-c1sc3c(c1C(c1ccccc1Cl)=NC2C)CCN(C(=O)c1ccc(Cl)cc1)C3` (centres unmarked) [Example 1b] stands 71 nM. Same read-out and setting: the result for `Cc1ccc(C(=O)N2CCc3c(sc4c3C(c3ccccc3Cl)=NC(C)c3nnc(C)n3-4)C2)cc1` (centres unmarked) [Example 20] reads 22 nM; that for `Cc1nnc2n1-c1sc3c(c1C(c1ccccc1Cl)=NC2C)CCN(C(=O)c1ccc(C(F)(F)F)cc1)C3` (centres unmarked) [Example 67], 2.8 nM; that for `CCc1ccc(C(=O)N2CCc3c(sc4c3C(c3ccccc3Cl)=NC(C)c3nnc(C)n3-4)C2)cc1` (centres unmarked) [Example 82], 2.5 nM.

Regarding `Cc1nnc2n1-c1sc3c(c1C(c1ccccc1Cl)=NC2C)CCN(C(=O)c1ccc(C(C)(C)C)cc1)C3` (centres unmarked) [Example 25], in experiment [1], affinity was put at a Ki of 2.4 nM. The same measure, in the same setting: the result for `Cc1nnc2n1-c1sc3c(c1C(c1ccccc1Cl)=NC2C)CCN(C(=O)C(C)(C)C)C3` (centres unmarked) [Example 73] reads 10 nM; that for “3-(4-Isobutylbenzoyl)-6-(2-chlorophenyl)-8,11-dimethyl-2,3,4,5-tetrahydro-4H-pyrido[4,3:4',5']thieno-[3,2-f][1,2,4]triazolo[4,3-a]1,4diazepine [Example 2]”, 1.8 nM.
